{"source": "patent US8802678B2", "about": "“Carbonylated (aza) cyclohexanes as dopamine D3 receptor ligands” (Bioprojet, priority 2006, dated 2014)", "data": [{"values": [{"smiles": "CC(=O)CN1CCC(CCN2CCN(c3ccc4c(c3)OCO4)CC2)CC1", "note": "[Example 584, 1-{4-[2-(4-Benzo[1,3]dioxol-5-ylpiperazin-1-yl)ethyl]piperidin-1-yl}propan-2-one]", "melting point": "113 °C"}, {"smiles": "CC(=O)CN1CCC(CCN2CCN(c3cc(Cl)c(Cl)cc3F)CC2)CC1.Cl.Cl", "melting point": "309 °C (dec.)"}, {"smiles": "Cc1ccc(C(F)(F)F)cc1N1CCN(CC[C@H]2CC[C@H](NC(=O)CCCC#N)CC2)CC1", "note": "[Example 388, 4-Cyano-N-(4-{2-[4-(2-methyl-5-trifluoromethylphenyl)piperazin-1-yl]ethyl}cyclohexyl)butyramide]", "melting point": "153 °C"}, {"smiles": "CC(=O)CN1CCC(CCN2CCN(c3ccc(Cl)c(Cl)c3)CC2)CC1", "note": "[Example 495, 1-(4-{2-[4-(3,4-Dichlorophenyl)-piperazin-1-yl]ethyl}piperidin-1-yl)propan-2-one]", "melting point": "114 °C"}, {"smiles": "Cc1ccc(F)cc1N1CCN(CC[C@H]2CC[C@H](NC(=O)CC#N)CC2)CC1", "note": "[Example 196, 2-Cyano-N-(4-{2-[4-(5-fluoro-2-methylphenyl)piperazin-1-yl]ethyl}cyclohexyl)acetamide]", "melting point": "159 °C"}, {"smiles": "Cl.NC(=O)CCC(=O)N1CCC(CCN2CCN(c3cccc4c3CCC4)CC2)CC1", "melting point": "137 °C"}, {"smiles": "CC(=O)N1CCC(C(=O)N[C@H]2CC[C@H](CCN3CCN(c4cccc(C(F)(F)F)c4)CC3)CC2)CC1", "note": "[Example 153, 1-Acetylpiperidine-4-carboxylic acid (4-{2-[4-(3-trifluoro-methylphenyl)piperazin-1-yl]ethyl}cyclohexyl)amide]", "melting point": "173 °C"}, {"smiles": "O=C(CC(F)(F)F)N[C@H]1CC[C@H](CCN2CCN(c3cccc(F)c3)CC2)CC1", "note": "[Example 409, 3,3,3-Trifluoro-N-(4-{2-[4-(3-fluorophenyl)piperazin-1-yl]ethyl}cyclohexyl)propanamide]", "melting point": "195 °C"}, {"smiles": "N#CCC(=O)N[C@H]1CC[C@H](CCN2CCN(c3ccc(C(F)(F)F)cc3F)CC2)CC1", "note": "[Example 645, 2-Cyano-N-(4-{2-[4-(2-fluoro-4-trifluoromethylphenyl)piperazin-1-yl]ethyl}cyclohexyl) acetamide]", "melting point": "212 °C"}, {"smiles": "N#CCCCC(=O)N[C@H]1CC[C@H](CCN2CC=C(c3cccc(C(F)(F)F)c3F)CC2)CC1", "melting point": "130 °C"}, {"smiles": "CSCC(=O)N[C@H]1CC[C@H](CCN2CCN(c3cccc(C(F)(F)F)c3)CC2)CC1", "note": "[Example 80, 2-Methylsulfanyl-N-(4-{2-[4-(3-trifluoromethylphenyl)piperazin-1-yl]ethyl}cyclohexyl)acetamide]", "melting point": "128 °C"}, {"smiles": "COc1ccc(C(C)(C)C)cc1N1CCN(CC[C@H]2CC[C@H](NC(=O)CC#N)CC2)CC1", "note": "[Example 197, N-(4-{2-[4-(5-tert-Butyl-2-methoxyphenyl)piperazin-1-yl]ethyl}cyclohexyl)-2-cyanoacetamide]", "melting point": "163 °C"}, {"smiles": "COCCCC(=O)N[C@H]1CC[C@H](CCN2CCN(c3cccc(C#N)c3)CC2)CC1", "note": "[Example 513, N-(4-{2-[4-(3-Cyanophenyl)-piperazin-1-yl]ethyl}cyclohexyl)-4-methoxybutanamide]", "melting point": "168 °C"}, {"smiles": "N#CCC(=O)N[C@H]1CC[C@H](CCN2CCN(c3ccc(Cl)c(Cl)c3)CC2)CC1", "note": "[Example 272, 2-Cyano-N-(4-{2-[4-(3,4-dichlorophenyl)piperazin-1-yl]ethyl}cyclohexyl)acetamide]", "melting point": "216 °C"}, {"smiles": "CCOCC(=O)N[C@H]1CC[C@H](CCN2CCN(c3cc(C(C)(C)C)nc(C(C)(C)C)n3)CC2)CC1", "note": "[Example 121, N-(4-{2-[4-(2,6-Di-tert-butylpyrimidin-4-yl)piperazin-1-yl]ethyl}cyclohexyl)-2-ethoxyacetamide]", "melting point": "104 °C"}, {"smiles": "CC(=O)CN1CCC(CCN2CCN(c3ccccc3CC(C)C)CC2)CC1.Cl.Cl", "melting point": "285 °C"}, {"smiles": "N#CCCCC(=O)N[C@H]1CC[C@H](CCN2CCN(c3ccc(Cl)cc3Cl)CC2)CC1", "note": "[Example 762, 4-Cyano-N-(4-{2-[4-(2,4-dichlorophenyl)piperazin-1-yl]ethyl}cyclohexyl)butanamide]", "melting point": "162 °C"}, {"smiles": "O=C(N[C@H]1CC[C@H](CCN2CCN(c3cccc(F)c3)CC2)CC1)C1CC=CC1", "note": "[Example 408, Cyclopent-3-enecarboxylic acid (4-{2-[4-(3-fluorophenyl)-piperazin-1-yl]ethyl}cyclohexyl) amide]", "melting point": "215 °C"}, {"smiles": "COc1ccc(Cl)c(N2CCN(CC[C@H]3CC[C@H](NC(=O)CC#N)CC3)CC2)c1", "note": "[Example 193, N-(4-{2-[4-(2-Chloro-5-methoxyphenyl)piperazin-1-yl]ethyl}cyclohexyl)-2-cyanoacetamide]", "melting point": "165 °C"}, {"smiles": "O=C(N[C@H]1CC[C@H](CCN2CCN(c3cccc(C(F)(F)F)c3F)CC2)CC1)C1=COCC1", "note": "[Example 497, 4,5-Dihydrofuran-3-carboxylic acid (4-{2-[4-(2-fluoro-3-trifluoromethylphenyl)piperazin-1-yl]ethyl}cyclohexyl) amide]", "melting point": "192 °C"}, {"smiles": "CC(=O)CN1CCC(CCN2CCN(c3cccc4c3CCCCC4)CC2)CC1.Cl.Cl", "melting point": "300 °C"}, {"smiles": "COCCCC(=O)N[C@H]1CC[C@H](CCN2CCN(c3ccc(Cl)cc3)CC2)CC1", "note": "[Example 698, N-(4-{2-[4-(4-Chlorophenyl)-piperazin-1-yl]ethyl}cyclohexyl)-4-methoxybutanamide]", "melting point": "204 °C"}, {"smiles": "CSc1cccc(N2CCN(CC[C@H]3CC[C@H](NC(=O)CCC#N)CC3)CC2)c1", "note": "[Example 269, 3-Cyano-N-(4-{2-[4-(3-methylsulfanylphenyl)piperazin-1-yl]ethyl}cyclohexyl)-propanamide]", "melting point": "98 °C"}, {"smiles": "O=C(COc1ccc(F)cc1)N[C@H]1CC[C@H](CCN2CCN(c3cccc(C(F)(F)F)c3)CC2)CC1", "note": "[Example 224, 2-(4-Fluorophenoxy)-N-(4-{2-[4-(3-trifluoromethylphenyl)-piperazin-1-yl]ethyl}cyclohexyl)-acetamide]", "melting point": "119 °C"}, {"smiles": "Cl.N#CCC(=O)N[C@H]1CC[C@H](CCN2CCN(c3ccccc3C(F)(F)F)CC2)CC1", "melting point": "278 °C"}, {"smiles": "COCCCC(=O)N[C@H]1CC[C@H](CCN2CCC(c3cccc(C(F)(F)F)c3)CC2)CC1", "note": "[Example 84, 4-Methoxy-N-(4-{2-[4-(3-trifluoromethylphenyl)piperidin-1-yl]ethyl}cyclohexyl)butanamide]", "melting point": "134 °C"}, {"smiles": "CC(=O)CN1CCC(CCN2CCN(c3cccc(C)c3C#N)CC2)CC1.Cl.Cl", "melting point": "215 °C"}, {"smiles": "CC(=O)CN1CCC(CCN2CCN(c3cc(F)cc(C(F)(F)F)c3)CC2)CC1.Cl.Cl", "melting point": "295 °C"}, {"smiles": "Cl.N#CCCCC(=O)N[C@H]1CC[C@H](CCN2CCN(c3ccccc3C(F)(F)F)CC2)CC1", "melting point": "248 °C"}, {"smiles": "N#CCC(=O)N[C@H]1CC[C@H](CCN2CC=C(c3cccc(C(F)(F)F)c3)CC2)CC1", "melting point": "149 °C"}, {"smiles": "CC(=O)CN1CCC(CCN2CCN(c3cc(F)cc(F)c3)CC2)CC1.Cl.Cl", "melting point": "260 °C"}, {"smiles": "CC(=O)CN1CCC(CCN2CCN(c3cc(F)c(F)cc3F)CC2)CC1", "note": "[Example 744, 1-(4-{2-[4-(2,4,5-Trifluoro-phenyl)-piperazin-1-yl]ethyl}piperidin-1-yl)propan-2-one]", "melting point": "68 °C"}, {"smiles": "Cl.N#CCC(=O)N[C@H]1CC[C@H](CCN2CCN(c3ccccc3)CC2)CC1", "melting point": "243 °C"}, {"smiles": "N#CCC(=O)N[C@H]1CC[C@H](CCN2CCN(c3cccc4cccnc34)CC2)CC1", "note": "[Example 237, 2-Cyano-N-{4-[2-(4-quinolin-8-ylpiperazin-1-yl)ethyl]-cyclohexyl}acetamide]", "melting point": "225 °C"}, {"smiles": "CC(=O)CN1CCC(CCN2CCN(c3ccc(F)c(Cl)c3)CC2)CC1", "note": "[Example 592, 1-(4-{2-[4-(3-Chloro-4-fluorophenyl)piperazin-1-yl]ethyl}piperidin-1-yl)propan-2-one]", "melting point": "92 °C"}, {"smiles": "CSc1cccc(N2CCN(CC[C@H]3CC[C@H](NC(=O)CCCC#N)CC3)CC2)c1", "note": "[Example 238, 4-Cyano-N-(4-{2-[4-(3-methylsulfanylphenyl)piperazin-1-yl]ethyl}cyclohexyl)butanamide]", "melting point": "127 °C"}, {"smiles": "COCC(=O)N[C@H]1CC[C@H](CCN2CCN(c3ccc(F)cc3F)CC2)CC1", "note": "[Example 48, N-(4-{2-[4-(2,4-Difluorophenyl)-piperazin-1-yl]ethyl}cyclohexyl)-2-methoxyacetamide]", "melting point": "154 °C"}, {"smiles": "Cc1ccc(Cl)cc1N1CCN(CC[C@H]2CC[C@H](NC(=O)CC(F)(F)F)CC2)CC1", "note": "[Example 179, N-(4-{2-[4-(5-Chloro-2-methylphenyl)piperazin-1-yl]ethyl}cyclohexyl)-3,3,3-trifluoropropanamide]", "melting point": "177 to 178 °C"}, {"smiles": "CC(=O)CN1CCC(CCN2CCN(c3cc(Cl)ccc3C)CC2)CC1.Cl.Cl", "melting point": "259 °C"}, {"smiles": "CCOCC(=O)N[C@H]1CC[C@H](CCN2CC=C(c3ccc(F)cc3)CC2)CC1", "melting point": "122 °C"}, {"smiles": "CC(=O)CN1CCC(CCN2CCN(c3ccc4c(c3)CCCCC4)CC2)CC1", "note": "[Example 642, 1-(4-{2-[4-(6,7,8,9-Tetrahydro-5H-benzocyclohepten-2-yl)piperazin-1-yl]ethyl}piperidin-1-yl)propan-2-one]", "melting point": "98 °C"}, {"smiles": "O=C(N[C@H]1CC[C@H](CCN2CCN(c3cccc(C(F)(F)F)c3)CC2)CC1)C1CC=CC1", "note": "[Example 52, Cyclopent-3-enecarboxylic acid (4-{2-[4-(3-trifluoromethylphenyl)-piperazin-1-yl]ethyl}cyclohexyl)-amide]", "melting point": "183 °C"}, {"smiles": "CC(=O)CN1CCC(CCN2CCN(c3cccc(C(=O)C(C)C)c3)CC2)CC1.Cl.Cl", "melting point": "250 °C"}, {"smiles": "CC(=O)CN1CCC(CCN2CCN(c3cccc(OC(C)C)c3)CC2)CC1.Cl.Cl", "melting point": "237 °C"}, {"smiles": "N#CCCCC(=O)N[C@H]1CC[C@H](CCN2CCN(c3ccc(Cl)c(Cl)c3Cl)CC2)CC1", "note": "[Example 765, 4-Cyano-N-(4-{2-[4-(2,3,4-trichlorophenyl)piperazin-1-yl]ethyl}cyclohexyl)butanamide]", "melting point": "176 °C"}, {"smiles": "COc1ccc(C)c(N2CCN(CC[C@H]3CC[C@H](NC(=O)CCCC#N)CC3)CC2)c1", "note": "[Example 391, 4-Cyano-N-(4-{2-[4-(5-methoxy-2-methylphenyl)piperazin-1-yl]ethyl}cyclohexyl)butanamide]", "melting point": "170 °C"}, {"smiles": "N#CCC(=O)N[C@H]1CC[C@H](CCN2CCN(c3cc(F)c(F)cc3F)CC2)CC1", "note": "[Example 472, 2-Cyano-N-(4-{2-[4-(2,4,5-trifluorophenyl)piperazin-1-yl]ethyl}cyclohexyl)acetamide]", "melting point": "188 °C"}]}]}
